Experimental data from patent US20060009432A1, “Use of neurosteroids to treat neuropathic pain” (priority 2004, published 2006).

How the values were obtained:
[1] = system: chronic constriction injury (CCI) of the sciatic nerve, rats; assay: Cold allodynia (acetone application) in chronic constriction injury model; assay type: in vivo, rat; conditions: for Average time to withdrawal (s.e.m.): CCI rats
Protocol: Unilateral sciatic nerve injury was produced under deep anesthesia with i.p injection of sodium pentobarbital (Mebumal, 60 mg/kg), as described by Bennett and Xie (Pain, 33, 87-107(1988)). The common sciatic nerve was exposed and freed for about 10 mm at mid-thigh level. Four ligatures (Ethicon, 4.0 plain gut) were tied loosely around the nerve with about 1-mm spacing creating a chronic constriction injury (CCl), and the incision was closed.
Brisk foot withdrawal in response to acetone application was measured based on the method described by Choi et al. The acetone bubble was gently brought in touch with the plantar surface around the center, and the acetone quickly spread over the central part of the plantar surface of the foot. Applications were made five times (once every 5 min) to each paw. The score for each application was recorded as follows: foot withdrawal was scored as positive (1) and lack of withdrawal as negative (O). The total score (0 to 5) was taken as index for cold sensitivity of the foot […]. This approximates pain from a non-noxious stimulus, i.e. allodynia.
Cold allodynia response was measured 15, 30, 45, 60, 90 and 120 minutes after i.p. administration of ganaxolone (at 1 mg/kg, 3 mg/kg or 10 mg/kg) as well as prior to administration of the neurosteroid and prior to infliction of the neural injury. Table 1 provides the resulting measurement of cold allodynia response in groups of six rats per dosage level. The abbreviation “s.e.m.” means standard error mean.

[2] = system: L5/L6 spinal nerve ligation (SNL) rats; assay: Tactile allodynia (von Frey) in spinal nerve ligation model; assay type: in vivo, rat
Protocol: (§1) (A) L5/L6 spinal nerve ligation (SNL) was performed as described by Kim and Chung (Pain, 50,355-363(1992)). Animals (mice or rats) were anesthetized with halothane. An incision was made lateral to the lumbar spine. The right L5 and L6 spinal nerves were isolated and tightly ligated distal to the dorsal root ganglion. The incision was closed, and animals were allowed to recover for 10 days. Sham-operated animals were prepared in an identical fashion except that the spinal nerves were not ligated.
The protocol was repeated until three changes in behavior were determined. The maximal cut-off size values used were 15 g for rats and 3.5 g for mice. The 50% paw withdrawal threshold was determined as 10Xf+kδ/10,000, where Xf=the value of the last von Frey filament used, k=Dixon value for the positive/negative pattern, and δ=the logarithmic difference between stimuli.
Tactile allodynia response was measured 15, 30, 45, 60, 90 and 120 minutes after i.p. administration of ganaxolone (at 1 mg/kg, 3 mg/kg, 6 mg/kg or 10 mg/kg). Table 2 provides the resulting measurement of tactile allodynia response in groups of five rats per dosage level.

[3] = system: rats receiving sham surgery; assay: Thermal withdrawal in rats receiving sham surgery; assay type: in vivo, rat
Protocol: as §1
(B) The method of Hargreaves et al. (Pain, 32, 77-88 (1988)) was used to measure the thermal withdrawal latency in SNL rats. Animals were acclimated within Plexiglas enclosures on a clear glass plate maintained at 30° C. A radiant heat source (high-intensity projector lamp) was focused onto the plantar surface of the paw. When the paw was withdrawn, a motion detector halted the stimulus and a timer. A maximal cut-off of 40 sec for rats and 30 sec for mice was used to prevent tissue damage. Differences in responses between groups were tested by using the standard ANOVA statistical test followed by post hoc testing with Student's t test with Bonferroni's correction. Significance was defined as P<0.05.
The thermal withdrawal response was measured using the same protocol in rats receiving sham surgery. Table 4 provides the resulting measurement of thermal withdrawal in groups of five rats per dose level.

[4] = system: migraine; conditions: phase 2 clinical trial for migraine; cited from earlier work

CC(=O)[C@H]1CC[C@H]2[C@@H]3CC[C@H]4C[C@](C)(O)CC[C@]4(C)[C@H]3CC[C@]12C [ganaxolone, 3α-hydroxy-3β-methyl-5α-pregnan-20-one]
Average time to withdrawal (s.e.m.) ([1]; 1 mg/kg i.p., 15 min after administration): 7.40 (1.02)
Average time to withdrawal (s.e.m.) ([1]; 1 mg/kg i.p., 30 min after administration): 6.12 (1.72)
Average time to withdrawal (s.e.m.) ([1]; 1 mg/kg i.p., 45 min after administration): 5.07 (1.14)
Average time to withdrawal (s.e.m.) ([1]; 1 mg/kg i.p., 60 min after administration): 2.59 (0.47)
Average time to withdrawal (s.e.m.) ([1]; 1 mg/kg i.p., 90 min after administration): 3.66 (0.47)
Average time to withdrawal (s.e.m.) ([1]; 1 mg/kg i.p., 120 min after administration): 3.16 (0.26)
Average time to withdrawal (s.e.m.) ([1]; 3 mg/kg i.p., 15 min after administration): 6.77
Average time to withdrawal (s.e.m.) ([1]; 3 mg/kg i.p., 30 min after administration): 13.03
Average time to withdrawal (s.e.m.) ([1]; 3 mg/kg i.p., 45 min after administration): 11.12
Average time to withdrawal (s.e.m.) ([1]; 3 mg/kg i.p., 60 min after administration): 11.69
Average time to withdrawal (s.e.m.) ([1]; 3 mg/kg i.p., 90 min after administration): 10.26
Average time to withdrawal (s.e.m.) ([1]; 3 mg/kg i.p., 120 min after administration): 10.30
Average time to withdrawal (s.e.m.) ([1]; 10 mg/kg i.p., 15 min after administration): 13.86
Average time to withdrawal (s.e.m.) ([1]; 10 mg/kg i.p., 30 min after administration): 15.35
Average time to withdrawal (s.e.m.) ([1]; 10 mg/kg i.p., 45 min after administration): 13.34
Average time to withdrawal (s.e.m.) ([1]; 10 mg/kg i.p., 60 min after administration): 10.38
Average time to withdrawal (s.e.m.) ([1]; 10 mg/kg i.p., 90 min after administration): 8.59
Average time to withdrawal (s.e.m.) ([1]; 10 mg/kg i.p., 120 min after administration): 8.87
Effect on average time to withdrawal ([1]; summary of Table 1, CCI rats): increases the average time to withdrawal
% Activity ± s.e.m. (tactile allodynia) ([2]; 1 mg/kg i.p., 15 min, SNL rats): 2.83 ± 2.83%
% Activity ± s.e.m. (tactile allodynia) ([2]; 1 mg/kg i.p., 30 min, SNL rats): 6.35 ± 3.38%
% Activity ± s.e.m. (tactile allodynia) ([2]; 1 mg/kg i.p., 45 min, SNL rats): 3.20 ± 2.21%
% Activity ± s.e.m. (tactile allodynia) ([2]; 1 mg/kg i.p., 60 min, SNL rats): 2.41 ± 1.53%
% Activity ± s.e.m. (tactile allodynia) ([2]; 1 mg/kg i.p., 90 min, SNL rats): 2.41 ± 1.53%
% Activity ± s.e.m. (tactile allodynia) ([2]; 1 mg/kg i.p., 120 min, SNL rats): 3.06 ± 3.06%
% Activity ± s.e.m. (tactile allodynia) ([2]; 3 mg/kg i.p., 15 min, SNL rats): 9.69 ± 4.56%
% Activity ± s.e.m. (tactile allodynia) ([2]; 3 mg/kg i.p., 30 min, SNL rats): 13.76 ± 6.54%
% Activity ± s.e.m. (tactile allodynia) ([2]; 3 mg/kg i.p., 45 min, SNL rats): 14.02 ± 5.14%
% Activity ± s.e.m. (tactile allodynia) ([2]; 3 mg/kg i.p., 60 min, SNL rats): 11.56 ± 3.01%
% Activity ± s.e.m. (tactile allodynia) ([2]; 3 mg/kg i.p., 90 min, SNL rats): 9.19 ± 2.67%
% Activity ± s.e.m. (tactile allodynia) ([2]; 3 mg/kg i.p., 120 min, SNL rats): 9.64 ± 1.63%
% Activity ± s.e.m. (tactile allodynia) ([2]; 6 mg/kg i.p., 15 min, SNL rats): 26.79 ± 9.34%
% Activity ± s.e.m. (tactile allodynia) ([2]; 6 mg/kg i.p., 30 min, SNL rats): 30.85 ± 6.77%
% Activity ± s.e.m. (tactile allodynia) ([2]; 6 mg/kg i.p., 45 min, SNL rats): 47.30 ± 14.99%
% Activity ± s.e.m. (tactile allodynia) ([2]; 6 mg/kg i.p., 60 min, SNL rats): 34.17 ± 15.78%
% Activity ± s.e.m. (tactile allodynia) ([2]; 6 mg/kg i.p., 90 min, SNL rats): 26.91 ± 15.45%
% Activity ± s.e.m. (tactile allodynia) ([2]; 6 mg/kg i.p., 120 min, SNL rats): 9.32 ± 2.85%
% Activity ± s.e.m. (tactile allodynia) ([2]; 10 mg/kg i.p., 15 min, SNL rats): 47.91 ± 21.86%
% Activity ± s.e.m. (tactile allodynia) ([2]; 10 mg/kg i.p., 30 min, SNL rats): 79.27 ± 18.71%
% Activity ± s.e.m. (tactile allodynia) ([2]; 10 mg/kg i.p., 45 min, SNL rats): 70.60 ± 18.42%
% Activity ± s.e.m. (tactile allodynia) ([2]; 10 mg/kg i.p., 60 min, SNL rats): 64.61 ± 18.63%
% Activity ± s.e.m. (tactile allodynia) ([2]; 10 mg/kg i.p., 90 min, SNL rats): 24.81 ± 9.53%
% Activity ± s.e.m. (tactile allodynia) ([2]; 10 mg/kg i.p., 120 min, SNL rats): 4.38 ± 1.81%
Sedation ([2]; 10 mg/kg i.p., SNL rats, tactile allodynia test): sedated four of the five rats for about one hour
Effect on % Activity ([2]; summary, SNL animals): increases the % Activity
% Activity (thermal withdrawal) ([3]; 3 mg/kg, 15 min): 11.87 ± 7.34%
% Activity (thermal withdrawal) ([3]; 3 mg/kg, 30 min): 3.25 ± 2.71%
% Activity (thermal withdrawal) ([3]; 3 mg/kg, 45 min): 3.62 ± 3.62%
% Activity (thermal withdrawal) ([3]; 3 mg/kg, 60 min): 1.98 ± 1.98%
% Activity (thermal withdrawal) ([3]; 3 mg/kg, 90 min): 2.22 ± 1.61%
% Activity (thermal withdrawal) ([3]; 3 mg/kg, 120 min): 1.39 ± 1.39%
% Activity (thermal withdrawal) ([3]; 6 mg/kg, 15 min): 0.00 ± 0.00%
% Activity (thermal withdrawal) ([3]; 6 mg/kg, 30 min): 0.00 ± 0.00%
% Activity (thermal withdrawal) ([3]; 6 mg/kg, 45 min): 3.98 ± 3.98%
% Activity (thermal withdrawal) ([3]; 6 mg/kg, 60 min): 2.95 ± 2.95%
% Activity (thermal withdrawal) ([3]; 6 mg/kg, 90 min): 1.73 ± 1.73%
% Activity (thermal withdrawal) ([3]; 6 mg/kg, 120 min): 0.41 ± 0.41%
% Activity (thermal withdrawal) ([3]; 10 mg/kg, 15 min): 24.54 ± 19.33%
% Activity (thermal withdrawal) ([3]; 10 mg/kg, 30 min): 22.60 ± 11.64%
% Activity (thermal withdrawal) ([3]; 10 mg/kg, 45 min): 8.03 ± 4.26%
% Activity (thermal withdrawal) ([3]; 10 mg/kg, 60 min): 0.65 ± 0.65%
% Activity (thermal withdrawal) ([3]; 10 mg/kg, 90 min): 0.28 ± 0.28%
% Activity (thermal withdrawal) ([3]; 10 mg/kg, 120 min): 0.02 ± 0.02%
Benefit on time to pain relief [4]: failed to show benefit
